Assay results from patent US5234935A, “N-alkylated 1,4-dihydropyridine-dicarboxylic acid esters” (Bayer Aktiengesellschaft, priority 1990, dated 1993).
pEC50, pIC50: −log10 of the molar value.

Assays:
erythrocytes [1] = assay: Filtration of calcium-laden erythrocytes through 5 μm pores; type: cell-based; details: Erythrocyte, 0.5 h; filtration through 5 μm sieve pores; sheared in normal buffer 30 min; read-out: ED50 improvement in the flexibility compared to damage to control
Description: Test c) detects the filterability of calcium-laden erythrocytes through 5 μm pores (ED50, mol/l). In this test, the membrane flexibility plays a role under small force gradients.
Filtration of erythrocytes through 5 μm sieve pores is an established method for the determination of the deformability of erythrocytes. The cells are sheared in normal buffer for 30 min so that the calcium concentration increases intracellularly and the flexibility is reduced.

erythrocytes [2] = assay: Antihaemolytic action, calcium-laden erythrocytes under high shearing stress; type: cell-based; details: Erythrocyte; reduction of haemoglobin release from calcium-laden erythrocytes; read-out: ED50 of the antihaemolytic action
Source text: Test b) detects the antihaemolytic action of the substances (ED50, mol/l). In this test, calcium-laden erythrocytes are forced through small pores under high shearing stresses, so that haemoglobin is released as a result of their haemolysis and measured. The reduction in haemoglobin release is the measured quantity.
Normal erythrocytes become haemolytic under high shearing stresses. The haemolysis of calcium-laden cells is particularly pronounced. This measure of mechanical stability is used for substance characterization. The measured quantity is the concentration of free haemoglobin in the medium.

erythrocytes [3] = assay: Calcium permeability of erythrocytes (45Ca) after ATPase blockade by Na ortho-vanadate; type: cell-based; details: Erythrocyte; inhibition of calcium influx (45Ca); Na ortho-vanadate 0.75 mM; read-out: ED50 of the inhibition
Description: Test a) measures the calcium permeability (^45 Ca) by blockade of the ATPases by Na ortho-vanadate. As a result, calcium can accumulate in the erythrocytes. A consequence is a reduced flexibility. ED50 values (mol/l) for the inhibition of calcium influx are given for test a).
After blockade of the membrane-immobilized ATPases by Na ortho-vanadate (0.75 mM), the calcium permeability is measured (^45 Ca method). Accumulation of calcium reduces the flexibility of the erythrocytes.

leukocyte adhesion = assay: Leukocyte adhesion in hamster cheek pouch model; type: in vivo; details: 0.1 mg/kg i.v.; for Leukocyte adhesion, Ischaemic, control = 100%: ischaemic (10 min circulation stop), small arterioles; for Leukocyte adhesion, Non-ischaemic, control = 100%: small venules
Description: The microcirculation can be directly observed in the hamster cheek pouch model. Measured quantities are leukocyte adhesion and also vessel diameter and erythrocyte velocity. The adhesion was quantified under ischaemic and non-ischaemic experimental conditions. Under non-ischaemic conditions, the adhesion is quantified in the area of small venules, under ischaemic conditions (10 min circulation stop) the adhesion is quantified in small arterioles. The results of the control experiments are given relative to 100%. 0.1 mg/kg i.v. is in each case chosen as the test dose, the results are decreases in % of the control.

SH rats = assay: Blood pressure in SH rats after p.o. administration (tail artery, Riva Rocci); type: in vivo, rat
Description: (§1) The blood pressure neutrality is determined in the following models, which are typical for dihydropyridines: in SH rats after p.o. administration by measurement in the tail artery (Riva Rocci method) and in anaesthetized Wistar rats after i.v. administration (via a catheter inserted in the carotid artery). Blood-neutral compounds are designated as those which reduce the blood pressure by at most 20% of the starting value in both test models at the dose indicated. The difference between the therapeutic dose and the blood pressure action occurring is at least a factor of 10, as a rule a factor of ≥30, in particular ≥100.

[4] = tested on: anaesthetized Wistar rats; assay: Blood pressure in anaesthetized Wistar rats after i.v. administration (carotid catheter); type: in vivo, rat
Description: as §1

Row | pIC50 (erythrocytes [3]) | Structure (SMILES) | pEC50 (erythrocytes [1]) | pEC50 (erythrocytes [2]) | Leukocyte adhesion, Ischaemic, control = 100% (leukocyte adhesion) | Leukocyte adhesion, Non-ischaemic, control = 100% (leukocyte adhesion) | Dose at which a blood pressure reduction occurs, p.o. (SH rats) | Dose at which a blood pressure reduction occurs, i.v. [4]
1 | – | CCOC(=O)C1=C(C)N(C)C(C)=C(C(=O)OCC)C1c1ccc(F)cc1 [Example 1, Diethyl 1,2,6-trimethyl-4-(4-fluorophenyl)-1,4-dihydropyridine-3,5-dicarboxylate] | 5.30 | – | – | – | – | –
2 | – | COC(=O)C1=C(C)N(C)C(C)=C(C(=O)OC)C1c1cccc(F)c1 [Example 2, Dimethyl 4-(3-fluorophenyl)-1,2,6-trimethyl-1,4-dihydropyridine-3,5-dicarboxylate] | – | 7.00 | – | – | – | –
3 | 5.30 | COC(=O)C1=C(C)N(C)C(C)=C(C(=O)OC)C1c1ccc(C(F)(F)F)cc1 [Example 3, Dimethyl 1,2,6-trimethyl-4-(4-trifluoromethylphenyl)-1,4-dihydro-pyridine-3,5-dicarboxylate] | 5.30 | – | 31% | 63% | > 30 mg/kg | > 10 mg/kg
4 | – | CCCCOC(=O)C1=C(C)N(C)C(C)=C(C(=O)OCCCC)C1c1ccc([N+](=O)[O-])cc1 [Example 6, dibutyl 1,2,6-trimethyl-4-(4-nitrophenyl)-1,4-dihydropyridine-3,5-dicarboxylate] | – | – | 56% | 50% | > 30 mg/kg | > 10 mg/kg
5 | – | COC(=O)C1=C(C)N(C)C(C)=C(C(=O)OC(C)C(C)C)C1c1ccc(C(F)(F)F)cc1 (centres unmarked) [Example 9, methyl 1,2-dimethylpropyl 1,2,6-trimethyl-4-(4-trifluoromethylphenyl)-1,4-dihydro-pyridine-3,5-dicarboxylate] | – | – | 36% | 70% | > 30 mg/kg | > 10 mg/kg
6 | 5.30 | COC(=O)C1=C(C)N(C)C(C)=C(C(=O)OC)C1c1ccc(Br)cc1 [Example 13, dimethyl 1,2,6-trimethyl-4-(4-bromophenyl)-1,4-dihydropyridine-3,5-dicarboxylate] | – | 6.30 | – | – | – | –
7 | – | CCCOC(=O)C1=C(C)N(C)C(C)=C(C(=O)OCCC)C1c1ccc(C#N)cc1 [Example 15, dipropyl 1,2,6-trimethyl-4-(4-cyanophenyl)-1,4-dihydropyridine-3,5-dicarboxylate] | – | 5.30 | – | – | – | –
8 | – | COC(=O)C1=C(C)N(C2CC2)C(C)=C(C(=O)OC)C1c1ccc(C(F)(F)F)cc1 [Example 18, dimethyl 1-cyclopropyl-2,6-dimethyl-4-(4-trifluoromethylphenyl)-1,4-dihydro-pyridine-3,5-dicarboxylate] | – | – | 32% | 54% | > 30 mg/kg | > 10 mg/kg
9 | – | CCOC(=O)C1=C(C)N(C2CC2)C(C)=C(C(=O)OCC)C1c1ccc(C(F)(F)F)cc1 [Example 19, diethyl 1-cyclopropyl-2,6-dimethyl-4-(4-trifluoromethylphenyl)-1,4-dihydro-pyridine-3,5-dicarboxylate] | – | – | 34% | 61% | > 100 mg/kg | > 10 mg/kg
10 | 5.30 | COC(=O)C1=C(C)N(C)C(C)=C(C(=O)OC)C1c1ccc(C)c([N+](=O)[O-])c1 [Example 21, dimethyl 1,2,6-trimethyl-4-(4-methyl-3-nitrophenyl)-1,4-dihydro-pyridine-3,5-dicarboxylate] | – | 6.30 | – | – | – | –
11 | – | CCOC(=O)C1=C(C)N(C)C(C)=C(C(=O)OCC)C1c1ccc(C)c([N+](=O)[O-])c1 [Example 22, diethyl 1,2,6-trimethyl-4-(4-methyl-3-nitrophenyl)-1,4-dihydro-pyridine-3,5-dicarboxylate] | – | 6.30 | – | – | – | –
12 | – | COC(=O)C1=C(C)N(C)C(C)=C(C(=O)OC)C1c1ccc(Cl)c(C(F)(F)F)c1 [Example 26, dimethyl 1,2,6-trimethyl-4-(4-chloro-3-trifluoromethylphenyl)-1,4-dihydro-pyridine-3,5-dicarboxylate] | 5.30 | 7.52 | – | – | – | –
13 | 6.00 | COC(=O)C1=C(C)N(C)C(C)=C(C(=O)OC)C1c1ccc(C)c(C(F)(F)F)c1 [Example 27, dimethyl 1,2,6-trimethyl-4-(4-methyl-3-trifluoromethylphenyl)-1,4-dihydro-pyridine-3,5-dicarboxylate] | – | 7.30 | – | – | – | –
14 | – | COC(=O)C1=C(C)N(C)C(C)=C(C(=O)OC)C1c1ccc([N+](=O)[O-])c(O)c1 [Example 28, dimethyl 1,2,6-trimethyl-4-(3-hydroxy-4-nitrophenyl)-1,4-dihydro-pyridine-3,5-dicarboxylate] | 5.30 | – | – | – | – | –
